According to patent US20250319061A1, “COMBINATION TREATMENT FOR ADENOCARCINOMA” (The General Hospital Corporation, priority 2022, published 2025):

Legend:
TAK1 = target: T1, TAK1 (Homo sapiens, UniProt O43318); conditions: cited from earlier work
T1 sequence (O43318 1-606): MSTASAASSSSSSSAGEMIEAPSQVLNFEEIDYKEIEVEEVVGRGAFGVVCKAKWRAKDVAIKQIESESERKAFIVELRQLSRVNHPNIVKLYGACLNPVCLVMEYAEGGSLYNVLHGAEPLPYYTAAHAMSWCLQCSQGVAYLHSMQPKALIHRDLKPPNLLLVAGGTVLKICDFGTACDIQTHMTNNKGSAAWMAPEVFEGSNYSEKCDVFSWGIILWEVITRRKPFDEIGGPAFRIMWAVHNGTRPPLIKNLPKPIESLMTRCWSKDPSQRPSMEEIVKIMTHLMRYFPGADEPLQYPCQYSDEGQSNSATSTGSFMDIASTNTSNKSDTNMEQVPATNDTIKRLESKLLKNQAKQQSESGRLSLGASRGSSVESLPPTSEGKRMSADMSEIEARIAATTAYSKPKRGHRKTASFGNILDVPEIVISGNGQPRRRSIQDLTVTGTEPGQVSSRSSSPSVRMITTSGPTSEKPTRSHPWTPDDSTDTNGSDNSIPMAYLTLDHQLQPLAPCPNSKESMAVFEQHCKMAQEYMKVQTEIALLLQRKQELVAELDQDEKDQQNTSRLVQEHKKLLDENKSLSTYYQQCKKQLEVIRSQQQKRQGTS
T1 sequence (Q15750 1-504 partner): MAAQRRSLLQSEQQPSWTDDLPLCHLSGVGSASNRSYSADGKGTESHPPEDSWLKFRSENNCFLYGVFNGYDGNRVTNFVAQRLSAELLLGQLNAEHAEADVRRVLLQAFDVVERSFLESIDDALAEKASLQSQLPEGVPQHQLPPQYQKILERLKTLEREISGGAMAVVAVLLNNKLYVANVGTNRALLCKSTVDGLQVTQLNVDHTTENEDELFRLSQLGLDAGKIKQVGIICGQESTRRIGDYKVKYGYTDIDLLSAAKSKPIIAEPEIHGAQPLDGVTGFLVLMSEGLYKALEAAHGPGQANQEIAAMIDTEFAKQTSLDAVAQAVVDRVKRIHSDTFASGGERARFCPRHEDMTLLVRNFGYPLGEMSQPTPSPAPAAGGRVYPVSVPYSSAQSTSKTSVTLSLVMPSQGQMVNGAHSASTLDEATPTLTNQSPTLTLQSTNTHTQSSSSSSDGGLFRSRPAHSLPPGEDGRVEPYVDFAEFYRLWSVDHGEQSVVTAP

[1] = system: QM and E PDAC monoculture and co-culture with CAF1; assay: FFX dose response in PDAC monoculture and co-culture with CAF1; format: cell-based, human; conditions: both monocultures and CAF co-culture conditions
From the text: (a) Dose response curves in QM and E PDAC monoculture and co-culture with CAF1, as well as CAF1 monoculture, following FFX treatment. (b) FFX IC50 for QM and E PDAC monoculture versus co-culture with CAF1. […] (a) Dose response curves in QM and E PDAC monoculture following combination 5z-7-oxozeaenol and FFX treatment. (b) Dose response curves in QM and E PDAC co-culture with CAF1 following combination 5z-7-oxozeaenol and FFX treatment. (c) Dose response curves in CAF1 monoculture following combination 5z-7-oxozeaenol and FFX treatment. […] (a) Dose response curves in QM and E PDAC monoculture following combination losartan and FFX treatment. (b) Dose response curves in QM and E PDAC co-culture with CAF1 following combination losartan and FFX treatment. (c) Dose response curves in CAF1 monoculture following combination losartan and FFX treatment. PDAC cells were co-cultured with fibroblasts (CAF) to more closely mimic the tumor microenvironment.

MEK = conditions: cited from earlier work
CAF1 monoculture = assay: Dose response and combination treatment in CAF1 monoculture; format: cell-based; conditions: combination with FFX
From the text: FIGS. 7A-C. […] FIGS. 8A-C. […] Values indicate percent killing, as compared to untreated cells, such that 0 indicates no killing and 100 indicates all cells killed. (e) Combination drug treatments of CAF1 monoculture. Values indicate percent killing, as compared to untreated cells, such that 0 indicates no killing and 100 indicates all cells killed. […] In order to evaluate whether oxo could synergize with FOLFIRINOX, we performed combinatorial drug treatment in PDAC monoculture and PDAC/CAF co-culture settings (FIG. 9A). […] In order to assess for synergistic activity between Oxo and FOLFIRINOX, we used the Bliss independence model to analyze our drug combination experiments (Bliss, 1939; Yadav et al., 2015).

PDAC cell lines [2] = assay: 2D (Boyden chamber) and 3D (type I collagen embedded) invasion assays; format: cell-based, human; conditions: Oxo for 3 days
Experimental: (§1) FIGS. 3A-D. Graphs showing relative cell growth of (a) QM and (b) E PDACs in 3D condition upon FFX and/or Oxo treatment with indicated concentrations for 2 weeks. Cell viability was measured using CellTiter Glo assay. Images showing growing PDACs (in 3D) under these conditions. (c) Graphs with results for clonogenic assay upon FFX and/or Oxo treatment with indicated concentrations for 2 weeks. Then, cells were fixed with 3.7% PFA and stained with crystal violet. Relative colony area was measured using Image J. (d) Images with 2D (Boyden chamber) and 3D invasion assays (type I collagen embedded) of PDAC cell lines incubated with Oxo for 3 days.

[3] = system: PDAC monoculture and PDAC/CAF co-culture; assay: Combinatorial drug treatment, percent killing and Bliss synergy; format: cell-based, human
From the text: FIGS. 9A-E. Combinational drug treatment (Oxo+FFX) in PDAC alone or PDAC+CAF coculture. […] (b) Combination drug treatments of PDAC 3 and PDAC 6, as monoculture or co-culture with CAF1. Values indicate percent killing, as compared to untreated cells, such that 0 indicates no killing and 100 indicates all cells killed. (c) Bliss plots of synergistic activity between 5z-7-oxozeaenol and FFX, where positive values represent synergistic activity, negative values represent anti-synergistic activity, and 0 represents no synergy. Synergy data are based on values from 8B. (d) Combination drug treatments of PDAC 8 and PDAC 9, as monoculture or co-culture with CAF1. Values indicate percent killing, as compared to untreated cells, such that 0 indicates no killing and 100 indicates all cells killed. (e) Combination drug treatments of CAF1 monoculture. Values indicate percent killing, as compared to untreated cells, such that 0 indicates no killing and 100 indicates all cells killed. FIG. 10. Combinational drug treatment (Losartan+FFX) in PDAC alone or PDAC+CAF coculture. Combination drug treatments of PDAC 3 and PDAC 6, as monoculture or co-culture with CAF1. Values indicate percent killing, as compared to untreated cells, such that 0 indicates no killing and 100 indicates all cells killed. In order to evaluate whether oxo could synergize with FOLFIRINOX, we performed combinatorial drug treatment in PDAC monoculture and PDAC/CAF co-culture settings (FIG. 9A). […] In order to assess for synergistic activity between Oxo and FOLFIRINOX, we used the Bliss independence model to analyze our drug combination experiments (Bliss, 1939; Yadav et al., 2015).

QM and E PDACs = assay: Relative cell growth in 3D condition upon FFX and/or Oxo treatment (CellTiter Glo); format: cell-based, human; conditions: for killing of / sensitivity to FFX of QM cells when Oxo is added to FOLFIRINOX: QM cells compared to E cells, 3D, 2 weeks
Experimental: Cell viability was measured using CellTiter Glo assay. […] Then, cells were fixed with 3.7% PFA and stained with crystal violet. Relative colony area was measured using Image J. (d) Images with 2D (Boyden chamber) and 3D invasion assays (type I collagen embedded) of PDAC cell lines incubated with Oxo for 3 days.

[4] = system: patient-derived PDAC cell lines; assay: RNA-ISH and total RNA sequencing of E/QM (EMT) signatures after Oxo treatment; format: cell-based, human; conditions: for E gene expression (RNA-ISH and RNA sequencing) / QM gene expression (RNA-ISH and RNA sequencing): Oxo 10 μM, 10 days, across PDAC cell lines
Experimental: (c) PDAC3, 9 and 6 cells were treated with Oxo (10 μM) for 10 days in tumorsphere (3D) condition.

FLT3 = target: T2, FLT3 (Homo sapiens, UniProt P36888); conditions: cited from earlier work
T2 sequence (P36888 27-993): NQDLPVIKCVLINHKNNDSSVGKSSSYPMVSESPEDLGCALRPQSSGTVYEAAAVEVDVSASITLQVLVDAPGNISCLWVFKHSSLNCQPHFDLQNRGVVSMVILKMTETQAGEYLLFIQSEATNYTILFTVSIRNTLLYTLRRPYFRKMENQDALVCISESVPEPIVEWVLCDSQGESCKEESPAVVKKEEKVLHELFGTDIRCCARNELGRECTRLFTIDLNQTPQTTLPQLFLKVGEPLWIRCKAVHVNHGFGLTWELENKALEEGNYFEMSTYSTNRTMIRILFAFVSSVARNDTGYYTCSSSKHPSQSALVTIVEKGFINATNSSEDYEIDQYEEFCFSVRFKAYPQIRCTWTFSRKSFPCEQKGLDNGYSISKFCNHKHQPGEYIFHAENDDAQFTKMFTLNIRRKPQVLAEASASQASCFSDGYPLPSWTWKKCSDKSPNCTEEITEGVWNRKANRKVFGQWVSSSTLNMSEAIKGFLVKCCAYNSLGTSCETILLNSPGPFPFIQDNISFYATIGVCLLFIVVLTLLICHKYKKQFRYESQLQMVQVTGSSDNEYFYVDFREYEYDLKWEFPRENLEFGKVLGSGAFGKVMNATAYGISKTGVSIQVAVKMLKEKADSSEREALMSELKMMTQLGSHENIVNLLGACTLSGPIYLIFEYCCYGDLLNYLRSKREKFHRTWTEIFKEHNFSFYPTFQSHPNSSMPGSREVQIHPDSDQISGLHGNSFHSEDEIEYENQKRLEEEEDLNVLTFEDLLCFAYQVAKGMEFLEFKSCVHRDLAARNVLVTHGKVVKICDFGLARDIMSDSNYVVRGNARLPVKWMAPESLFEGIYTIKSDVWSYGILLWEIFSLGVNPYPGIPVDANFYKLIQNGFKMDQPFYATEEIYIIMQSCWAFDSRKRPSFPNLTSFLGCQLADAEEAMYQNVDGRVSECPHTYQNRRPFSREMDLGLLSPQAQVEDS

PDAC cell lines [5] = assay: Clonogenic assay (crystal violet, colony area by Image J); format: cell-based, human; conditions: 2 weeks
Experimental: as §1
FIGS. 4A-F. Effects of TAK1 Knockout in PDAC EMT Plasticity. (a) Western blots showing complete ablation of TAK1 across PDAC cell lines. (b) Heatmaps based on RNA-ISH and total RNA-seq showing EMT signatures in TAK1 KO PDAC6 and PDAC9 cell lines. (c) Clonogenic assays for WT (non-targeting single guide RNA, sgRNA) and TAK1 KO cell lines treated with FFX for 2 weeks. Colony area was determined by Image J. (d) Images with 2D invasion assay (Boyden chamber) in TAK1 KO PDAC cell lines. (e) Graphs confirming functional ablation of TAK1 represented by TAK1 downstream activity of p-MEK1/2 and p-ERK1/2 under TGFbeta stimulation. (f) Graphs with results for clonogenic assay upon FFX and/or Takinib treatment with indicated concentrations for 2 weeks.

COc1cc(O)c2c(c1)/C=C/C[C@H](O)[C@H](O)C(=O)/C=C\C[C@H](C)OC2=O [Oxo, (5z)-7-oxozeaenol]
inhibition of TAK1 (TAK1): inhibit | effect on PDAC cell response to FOLFIRINOX [1]: sensitized | inhibition of MEK (MEK): inhibit | effect on CAFs alone (CAF1 monoculture): little effect | invasiveness / invasion (PDAC cell lines [2]): significant reduction | migratory abilities / migration (PDAC cell lines [2]): significant reduction | invasiveness / invasion (PDAC cell lines [2]; listed as (5z)-7-Oxozeaenol): reduced | migratory abilities / migration (PDAC cell lines [2]; listed as (5z)-7-Oxozeaenol): reduced | cell killing (cell viability) ([3]; increasing doses, 3 days, monoculture and co-culture): dose-dependent cell killing | sensitivity to Oxo as a single agent (QM and E PDACs; E cells BxPC3 and DAN-G): sensitive | killing of / sensitivity to FFX of QM cells when Oxo is added to FOLFIRINOX (QM and E PDACs): synergistic increased killing | killing of / sensitivity to FFX of QM cells when Oxo is added to FOLFIRINOX (QM and E PDACs; listed as (5z)-7-Oxozeaenol): synergistically increased | E gene expression (RNA-ISH and RNA sequencing) ([4]; listed as (5z)-7-Oxozeaenol): enrichment | QM gene expression (RNA-ISH and RNA sequencing) ([4]; listed as (5z)-7-Oxozeaenol): decreased | E gene expression (RNA-ISH and RNA sequencing) ([4]; listed as oxo): increased | QM gene expression (RNA-ISH and RNA sequencing) ([4]; listed as oxo): significantly suppressed | mesenchymal gene expression (Hallmark EMT geneset) ([4]; PDAC 3, 6, and 8): significantly decreased | mesenchymal gene expression (Hallmark EMT geneset) ([4]; PDAC 9): numerically decreased | global mesenchymal gene expression (200 genes of Hallmark EMT geneset) ([4]; all lines tested, with vs without Oxo): numerically lower | inhibition of FLT3 (FLT3): inhibit | colony formation (PDAC cell lines [5]; Oxo-treated PDACs): significant reduction

CCCn1/c(=N/C(=O)c2cccc(C(N)=O)c2)[nH]c2ccccc21 [Takinib, reference compound]
inhibition of TAK1 (TAK1): selective inhibitor | sensitization of FOLFIRINOX response (clonogenic assay) (PDAC cell lines [5]; QM PDAC cells, FFX and/or Takinib): not able to sensitize

CCCCc1nc(Cl)c(CO)n1Cc1ccc(-c2ccccc2-c2nn[nH]n2)cc1 [Losartan, reference compound]
effect on PDAC cell response to FOLFIRINOX [1]: did not affect | effect on CAFs alone (CAF1 monoculture): no effect | additional killing when combined with FOLFIRINOX ([3]; PDAC 3 and PDAC 6, monoculture or co-culture with CAF1): did not demonstrate any additional killing | cell growth when combined with FOLFIRINOX ([3]; low FOLFIRINOX settings): increased cell growth
